Data on three compounds can be found in patent publication US4522813A, “Cyclic hexapeptide somatostatin analogs” (Merck & Co., Inc., priority 1983, dated 1985).

The test system of experiment [1] is portal vein glucagon. Put plainly: Decrease of portal vein glucagon levels in anesthetized rats. The experiment is classed as in vivo, rat. Particulars: multiple or fraction of the effect of somatostatin (=1), fiducial limits in parentheses, external jugular vein, portal vein blood after 5 minutes. The method, then:
(§1) Analogs of somatostatin were compared to somatostatin in their ability to decrease the levels of portal vein glucagon and insulin in anesthetized rats. Male Sprague-Dawley rats (Charles River CD) weighing 160-200 g were anesthetized with urethane (150 mg/100 g of body weight; Aldrich). Saline or peptides were administered via the external jugular vein. After 5 minutes, the portal vein was exposed, and blood was collected via syringe containing 3 mg of EDTA and placed in chilled tubes containing 100 μl of Trasylol (FBA Pharmaceuticals) for subsequent hormone analysis. Plasma levels of glucagon were determined by the method of Faloona and Unger, Methods of Hormone Radioimmunoassay, Jaffe and Behrman (Eds), Academic Press, New York, Vol, II, pp. 257-527 (1976), utilizing glucagon antisera 30K obtained from R. Unger (Dallas, TX). Plasma levels of insulin were determined by a modification of the procedure of Herbert et al., J. Clin. Endocrinol. Metab., 25, 1375-1384 (1965).

The subject of experiment [2] is pentagastrin evoked gastric secretion. In words: Inhibition of pentagastrin evoked gastric secretion in the chronic fistula dog. In kind it is in vivo. On the set-up: dose or concentration left out as unconfirmed. The settings on record: infusion 0-60 min., relative to placebo trial; for Gastric Secretion & Inhibition, Acid Concentration 0-30 / Gastric Secretion & Inhibition, Vol. 0-30: interval 0-30 min; for Gastric Secretion & Inhibition, Acid Concentration 30-60 / Gastric Secretion & Inhibition, Vol. 30-60: interval 30-60 min; for Gastric Secretion & Inhibition, Acid Concentration 60-90 / Gastric Secretion & Inhibition, Vol. 60-90: interval 60-90 min; for Gastric Secretion & Inhibition, Acid Concentration 90-120 / Gastric Secretion & Inhibition, Vol. 90-120: interval 90-120 min. How it is done:
The gastric effects of the instant cyclichexapeptide analogs of somatostatin are determined by the following procedure.
Compounds were tested for their ability to inhibit pentagastrin evoked gastric secretion in the chronic fistula dog. Female beagle dogs with a chronic gastric fistula were given pentagastrin (2.5 μg./kg./hour, i.v. from -60 to 120 min.) and gastric outputs were collected via the fistula cannula. Samples were analyzed at 30 minute intervals for volume (Ml.) and titratable acid (mEq/L) (Titration to pH 7 with 0.01N NaOH); total acid output (mEq) was calculated as the production of output volume and acid concentration. Test compounds were infused at a constant rate from 0 to 60 minutes. Data have been expressed as percent change of total acid output relative to a placebo trial in the same animals.

The test system of experiment [3] is portal vein insulin. In words: Decrease of portal vein insulin levels in anesthetized rats. The settings on record: multiple or fraction of the effect of somatostatin (=1), fiducial limits in parentheses, external jugular vein, portal vein blood after 5 minutes. The experiment is classed as in vivo, rat. How it is done:
as §1

Experiment [4] concerns growth hormone release from rat pituitary cells. In words: In vitro inhibition of growth hormone release, cultured rat pituitary cells. In kind it is cell-based. Particulars: multiple or fraction of the effect of somatostatin (=1), fiducial limits in parentheses, 4 hours incubation. The method, then: The instant cyclic hexapeptide analogs of somatostatin are tested and compared with the effects of somatostatin in an in vitro test for the inhibition of growth hormone. The test is described as follows:
"Rat pituitaries were isolated according to the procedures of Vale and Grant "In vitro Pituitary Hormone Secretion Assay for Hypophysiotropic Substances" in Methods in Enzymology, Vol. XXXVII, eds. O'Malley, B. W. and Hardman, J. G. (Academic Press, Inc., New York) pp. 5-93 (1975).
After 4 days in culture, the cells were washed and incubated for 4 hours in Dulbecco-modified Eagle's medium in the presence or absence of graded doses of each analog or somatostatin. The medium was then collected for subsequent growth hormone determination by a double antibody radioimmunoassay for rat growth hormone."

For the compound `C[C@H](N)C(=O)NCC(=O)N[C@H]1CSSC[C@@H](C(=O)O)NC(=O)[C@H](CO)NC(=O)[C@H]([C@@H](C)O)NC(=O)[C@H](Cc2ccccc2)NC(=O)[C@H]([C@@H](C)O)NC(=O)[C@H](CCCCN)NC(=O)[C@H](Cc2c[nH]c3ccccc23)NC(=O)[C@H](Cc2ccccc2)NC(=O)[C@H](Cc2ccccc2)NC(=O)[C@H](CC(N)=O)NC(=O)[C@H](CCCCN)NC1=O` [Somatostatin], in experiment [1], the “Glucagon Inhibition” value is 1. Besides, in experiment [2], the “Gastric Secretion & Inhibition, Acid Concentration 0-30” value is given as 16%; the “Gastric Secretion & Inhibition, Vol. 0-30” value turned out to be 85%; the “Gastric Secretion & Inhibition, Acid Concentration 30-60” value is reported as 77%; the “Gastric Secretion & Inhibition, Vol. 30-60” value is 97%. In experiment [2], the “Gastric Secretion & Inhibition, Acid Concentration 60-90” value is 61%; the “Gastric Secretion & Inhibition, Vol. 60-90” value amounted to 81%; the “Gastric Secretion & Inhibition, Acid Concentration 90-120” value was determined as 14%; the “Gastric Secretion & Inhibition, Vol. 90-120” value was 37%.

For “Cyclo--(Pro--Phe--D-Trp--cis-AChxAla--Thr--Phe)”, the “Insulin Inhibition” value in experiment [3] is listed as 1.4 (0.7, 2.7). Moreover, the “Growth Hormone Release Inhibition” value in experiment [4] is 0.5 (0.3, 0.6). In addition, in experiment [1], the “Glucagon Inhibition” value is on record as 2.2 (1.1, 4.7). In addition, in experiment [2], the “Gastric Secretion & Inhibition, Acid Concentration 0-30” value is listed as 4%; the “Gastric Secretion & Inhibition, Vol. 0-30” value came to 75%; the “Gastric Secretion & Inhibition, Acid Concentration 30-60” value came out at 19%; the “Gastric Secretion & Inhibition, Vol. 30-60” value was determined as 82%. In experiment [2], the “Gastric Secretion & Inhibition, Acid Concentration 60-90” value is given as 13%; the “Gastric Secretion & Inhibition, Vol. 60-90” value was determined as 20%; the “Gastric Secretion & Inhibition, Acid Concentration 90-120” value stood at 5%; the “Gastric Secretion & Inhibition, Vol. 90-120” value was 2%.

As for “Cyclo--(Pro--Phe--D-Trp--t-D-AChxGly--Thr--Phe)”, the “Insulin Inhibition” value in experiment [3] stood at 0.07. In addition, the “Growth Hormone Release Inhibition” value in experiment [4] was determined as 0.11. Moreover, the “Glucagon Inhibition” value in experiment [1] was determined as 0.07.
